The values below come from patent US10335455B2, “Method for prevention or treatment of intractable inflammatory bowel disease” (University of Miyazaki, priority 2011, dated 2019).

For one series, the system named is colitis model. As to conditions: Gonzalez et al.; intraperitoneal administration of 12 μg/kg body weight; cited from earlier work.
The test system of series [1] is large bowel artificial ulcer model. The series is described as follows: Enema administration to a large bowel artificial ulcer model. In kind it is in vivo. As to conditions: 5.0 μg/kg body weight.
For series [2], the system named is subjects including normal individuals. The series is described as follows: Safety tests of continuous intravenous injection of adrenomedullin in subjects including normal individuals. The series is classed as in vivo, human. On the procedure: (§1) The safety of continuous intravenous injection of adrenomedullin for 90 minutes was confirmed in 28 subjects including normal individuals. […] In the present Examples, 2 weeks of the animal test period was set to the continuous administration period.

For series [3], the system named is inflammatory bowel disease model. In kind it is in vivo. The source says:
Thus, in the adrenomedullin administration, a low dose to an extent not greatly affecting circulatory dynamics is preferably used; a high dose rather makes it worse.

The test system of series [4] is DSS enteritis (diffuse colitis). The series is described as follows: Administration in DSS enteritis (diffuse colitis) model. The series is classed as in vivo. As to conditions: 2.5 μg/kg body weight.
Series [5] has as its system patients with steroid-resistant or steroid-dependent ulcerative colitis. The series is described as follows: Continuous intravenous administration of adrenomedullin to patients with intractable ulcerative colitis. The series is classed as in vivo, human. The note with it: for DAI (Average): 6 cases, immediately before administration 9.0 ± 1.4; for Endoscopic findings in the large bowel: maintenance of remission: continuation treatment azathioprine 50 mg/day.

The subject of series [6] is various disease model animals. The series is described as follows: Continuous intravenous injection of adrenomedullin for 1 month in disease model animals. In kind it is in vivo. As to conditions: continuous intravenous injection for 1 month. The protocol:
as §1

“Also recorded” adds a separate entry of the source.

Regarding `CC[C@H](C)[C@H](NC(=O)[C@H](CCC(N)=O)NC(=O)[C@H](Cc1c[nH]cn1)NC(=O)[C@H](C)NC(=O)[C@H](CC(C)C)NC(=O)[C@H](CCCCN)NC(=O)[C@H](CCC(N)=O)NC(=O)[C@@H](NC(=O)[C@@H](NC(=O)[C@@H]1CSSC[C@H](NC(=O)CNC(=O)[C@H](Cc2ccccc2)NC(=O)[C@H](CO)NC(=O)[C@H](CCCNC(=N)N)NC(=O)[C@H](CC(C)C)NC(=O)CNC(=O)[C@H](CCC(N)=O)NC(=O)[C@H](Cc2ccccc2)NC(=O)[C@H](CC(N)=O)NC(=O)[C@H](CC(N)=O)NC(=O)[C@H](CCSC)NC(=O)[C@H](CO)NC(=O)[C@H](CCC(N)=O)NC(=O)[C@H](CCCNC(=N)N)NC(=O)[C@@H](N)Cc2ccc(O)cc2)C(=O)N[C@@H](CCCNC(=N)N)C(=O)N[C@@H](Cc2ccccc2)C(=O)NCC(=O)N[C@@H]([C@@H](C)O)C(=O)N1)[C@@H](C)O)C(C)C)C(=O)N[C@@H](Cc1ccc(O)cc1)C(=O)N[C@@H](CCC(N)=O)C(=O)N[C@@H](Cc1ccccc1)C(=O)N[C@H](C(=O)N[C@@H](CC(=O)O)C(=O)N[C@@H](CCCCN)C(=O)N[C@@H](CC(=O)O)C(=O)N[C@@H](CCCCN)C(=O)N[C@@H](CC(=O)O)C(=O)N[C@@H](CC(N)=O)C(=O)N[C@H](C(=O)N[C@@H](C)C(=O)N1CCC[C@H]1C(=O)N[C@@H](CCCNC(=N)N)C(=O)N[C@@H](CO)C(=O)N[C@@H](CCCCN)C(=O)N[C@H](C(=O)N[C@@H](CO)C(=O)N1CCC[C@H]1C(=O)N[C@@H](CCC(N)=O)C(=O)NCC(=O)N[C@@H](Cc1ccc(O)cc1)C(N)=O)[C@@H](C)CC)C(C)C)[C@@H](C)O` [adrenomedullin, synthetic human adrenomedullin], the “Efficacy in colitis model” value in the series on colitis model is listed as “has shown the efficacy”. Also, the “Effect in large bowel artificial ulcer model” value in series [1] was “highest”. Further, the Blood pressure reduction result in series [2] (2.5 pmol/kg body weight/min, continuous administration for 27 hours) is “more than 20 mmHg”; in series [5] (one patient, 1.5 pmol/kg body weight/min during 14 days of administration), at most 10 mmHg. Also, the “Safety of continuous intravenous injection” value in series [2] (90 minutes, 28 subjects including normal individuals) is “confirmed”. For the same molecule, the Adverse events result in series [2] (continuous intravenous injection for 27 hours, 12 subjects) was “no adverse event was observed”. In series [3] (animal experiments), the “Curve of adrenomedullin dose versus anti-inflammatory/mucosa-repairing effect” value is reported as “anti-bell shape”. Moreover, the “Blood pressure reduction at the optimal (low) dose” value in series [3] (in vivo) is given as “proved not to cause blood pressure reduction”. Besides, the “Effect in DSS enteritis (diffuse colitis)” value in series [4] is on record as “a high effect has also been observed”. The “DAI (Average)” value is listed as 1.0 ± 1.15 in series [5] (12 weeks after start of administration, p 0.0001) and 5.0 ± 2.4 in series [5] (14 days after start of administration, 1.5 pmol/kg body weight/min i.v., 8 hours/day, p 0.0028). In series [5] (all 6 cases), the “Mucosal regeneration in the affected areas” value is “prominent mucosal regeneration was also confirmed”. The Remission maintenance result in series [5] (all 6 cases) is “remission was maintained”. For the same molecule, the Treatment effects entry in series [5] (all 6 cases of adrenomedullin administration) is “treatment effects were confirmed in all cases”. In addition, the “DAI improvement at 14 days after adrenomedullin administration” value in series [5] (in 4 cases of 6) is at least 4 points. Besides, the “Variation in the blood concentration of adrenomedullin immediately after administration” value in series [5] (one patient, 1.5 pmol/kg body weight/min i.v.) is listed as “smaller than variation due to inflammation”. Moreover, the “Endoscopic findings in the large bowel: maintenance of remission” value in series [5] (one patient, 3 months after adrenomedullin administration) is on record as “confirmed the maintenance of the remission; also recorded: Remission maintenance was confirmed”; in series [5] (one patient, 12 months after adrenomedullin administration), “also confirmed the maintenance of the remission”. The “Endoscopic findings in the large bowel” value in series [5] (one patient, after 14 days of continuous administration, 1.5 pmol/kg body weight/min, 8 hours/day) is “remission due to adrenomedullin was confirmed; also recorded: marked proliferation of regenerated epithelium (left) and scarring of shallow wide ulcer (right)”. In series [5] (one patient, during 14 days of administration), the “Symptoms considered to be side effects” value is on record as “not observed”. In series [6], the Safety and efficacy result was “confirming the safety and efficacy thereof”.
